Measured values: patent US4496591A, “Insecticidal bis-carbamate sulfides” (priority 1981, dated 1985)

Tests used:
Assay type in all cases: in vivo
[1] = tested on: bean aphid (Aphis fabae Scop.); assay: Bean aphid foliage spray test; parameters: key: A: excellent control; B: partial control; C: no control at 500 ppm; conditions: 500 parts per million, 24 hour
Method: (§1) Suspensions of the test compounds were prepared by dissolving one gram of compound in 50 milliliters of acetone in which had been dissolved 0.1 gram (10 percent of the weight of compound) of an alkylphenoxy polyethoxyethanol surfactant, as an emulsifying or dispersing agent. The resulting solution was mixed into 150 milliliters of water to give roughly 200 milliliters of a suspension containing the compound in finely divided form. The thus-prepared stock suspension contained 0.5 percent by weight of compound. The concentrations in parts per million by weight employed in the tests described hereinbelow were obtained by appropriate dilutions of the stock suspension with water. The test procedures were as follows:
Adults and nymphal stages of the bean aphid (Aphis fabae Scop.) reared on potted dwarf nasturtium plants at 68°-70° F. and 50±5 percent relative humidity, constituted the test insects. For testing purposes, the number of aphids per pot were standardized to 100-150 by trimming plants containing excess aphids.
The test compounds were formulated by diluting the stock suspension with water to give a suspension containing 500 parts of test compound per million parts of final formulation.
The potted plants (one pot per compound tested) infested with 100-150 aphids, were placed on a revolving turntable and sprayed with 100-110 milliliters of test compound formulation by use of a DeVilbiss spray gun set at 40 psig. air pressure. This application, which lasted 25 seconds, was sufficient to wet the plants to run-off. As a control, 100-110 milliliters of a water-acetone-emulsifier solution containing no test compound was also sprayed on infested plants. After spraying, the pots were placed on their sides on a sheet of white standard mimeograph paper which had been previously ruled to facilitate counting. Temperature and humidity in the test room during the 24 hour holding period were 68°-70° F. and 50±5 percent, respectively. Aphids which fell onto the paper and were unable to remain standing after being uprighted were considered dead. Aphids remaining on the plants were observed closely for movement and those which were unable to move the length of the body upon stimulation by prodding were considered dead.
(§2) In these tests the pesticidal activity of the compounds at the indicated dosage rate against aphid, Southern Armyworm, Bean Beetle and housefly was rated as follows: […]

[2] = tested on: southern armyworm (Spodoptera eridania, (Cram.)) larvae; assay: Southern armyworm leaf spray bait test; parameters: key: A: excellent control; B: partial control; C: no control at 500 ppm; conditions: 500 parts per million, three days
Method: as §1
Larvae of the southern armyworm (Spodoptera eridania, (Cram.)), reared on Tendergreen bean plants at a temperature of 80±5° F. and a reative humidity of 50±5 percent, constituted the test insects.
The test compounds were formulated by diluting the stock suspension with water to give a suspension containing 500 parts of test compound per million parts of final formulation. Potted Tendergreen bean plants of standard height and age were placed on a revolving turntable and sprayed with 100-110 milliliters of test compound formulation by use of a DeVilbiss spray gun set at 40 psig air pressure. This application, which lasted 25 seconds, was sufficient to wet the plants to run-off. As a control, 100-110 milliliters of a water-acetone-emulsifier solution containing no test compound were also sprayed on infested plants. When dry, the paired leaves were separated and each one was placed in a 9 centimeter Petri dish lines with moistened filter paper. Five randomly selected larvae were introduced into each dish and the dishes were closed. The closed dishes were labeled and held at 80°-85° F. for three days. Although the larvae could easily consume the whole leaf within twenty-four hours, no more food was added. Larvae which were unable to move the length of the body, even upon stimulation by prodding, were considered dead.
as §2

[3] = tested on: house flies (Musca domestica, L.); assay: Fly bait test; parameters: key: A: excellent control; B: partial control; C: no control at 500 ppm; conditions: 500 parts per million, sugar bait, twenty-four hours
Method: as §1
Four to six day old adult house flies (Musca domestica, L.), reared according to the specifications of the Chemical Specialties Manufacturing Association (Blue Book, McNair-Dorland Co., N.Y. 1954; pages 243-244, 261) under controlled conditions of 80±5° F. and 50±5 percent relative humidity, were the test insects. The flies were immobilized by anesthetizing them with carbon dioxide. Twenty-five immobilized individuals, males and females, were transferred to a cage consisting of a standard food strainer about five inches in diameter which was inverted over a wrapping-paper-covered surface. The test compounds were formulated by diluting the stock suspension with a 10 percent (by weight) sugar solution to give a suspension containing 500 parts of test compound per million parts of final formulation, by weight. Ten milliliters of the test formulation were added to a souffle cup containing a one-inch square of an absorbent cotton pad. This bait cup was introduced and centered on the blotting paper under the food strainer prior to admitting the anesthetized flies. The caged flies were allowed to feed on the bait for twenty-four hours, at a temperature of 80±5° F. and at a relative humidity of 50±5 percent.
as §2

[4] = tested on: root-knot nematode, Meloidogyne incognita var. acrita; assay: Nematocide test; parameters: key: 1: severe galling, equal to untreated plants; 2: moderate galling; 3: light galling; 4: very light galling; 5: no galling, perfect control; conditions: 3.33 m.g. per jar, cucumber, approximately 3 weeks
Method: The test organism used was the infective migratory larvae of the root-knot nematode, Meloidogyne incognita var. acrita, reared in the greenhouse on roots of cucumber plants. Infected plants were removed from the culture, and the roots were chopped very finely. A small amount of this inoculum was added to a pint jar containing approximately 180 cc. of soil. The jars were capped and incubated for one week at room temperature. During this period eggs of the nematode were hatched, and the larval forms migrated into the soil.
Ten ml. of the test formulation were added to each of the two jars for each dosage tested. Following the addition of chemical, the jars were capped, and the contents thoroughly mixed on a ball mill for […].
The test compounds were formulated by a standard procedure of solution in acetone addition of an emulsifier, and dilution with water. Primary screening tests were conducted at 3.33 m.g. of the test compound per jar.
The jars were left capped at room temperature for a period of 48 hours, and the contents then transferred to 3 inch pots. Subsequently, the pots were seeded to cucumber as an indicator crop and placed in the greenhouse where they were cared for in the normal fashion for approximately 3 weeks.
The cucumber plants were then taken from the pots, the soil removed from the roots, and the amount of galling visually rated.
In the test for activity against nematodes activity was rated as follows: […]

Structure (SMILES): CSC(C)=NOC(=O)N(C)SN(C)C(=O)Oc1cccc(C=O)c1 [Compound 3]
- Aphids, pesticidal activity rating [1]: A
- Southern Armyworm, pesticidal activity rating [2]: A
- Housefly, pesticidal activity rating [3]: A
- Root-Knot Nematode, galling rating [4]: 1
